{
  "source": "patent US12263140B1",
  "about": "“Methods of reducing the production of greenhouse gases from animals” (AGRICULTURAL SCIENCES LIMITED, priority 2023, dated 2025)",
  "type_in_all_cases": "in vivo",
  "key": {"[1]": {"system": "sheep", "assay": "Sheep weight gain trial, vitamin K3 in drinking water, 22 days", "from_the_text": "A trial was completed using three randomly selected Wiltshire hogget wether sheep as the test subjects chosen from a wider group of sheep.\nThe test subject sheep were allowed access to the dosed water for a total of 5 days, after which the confinement was removed and the test subject and un-dosed control sheep mixed in the same field. From day 6 the test sheep grazed the wider field and received only un-dosed tap water, identical to the control sheep (see below).\nThe remaining wider group of sheep post removal of the three test subject sheep became the control sheep which were contained in a wider part of the same field as the test subject sheep for the first five days and then mixed with the test subject sheep after five days as noted above. The control sheep had access ad libitum to un-dosed tap water during the first five days of the trial and, as noted, the test sheep and control sheep both had access to the same tap water source ad libitum post the initial five days and to the trial end.\nTo account for this, two mature ewes from a neighbouring property (“naïve” sheep controls) were introduced to graze in the same field as the control sheep (and post day 5, the control and test sheep). The naïve sheep also had ad libitum access to un-dosed tap water for the duration of the trial. It was envisaged that the naïve sheep would re-infect the control and test sheep with methanogens once in the same field.\nThe sheep from each group were weighed at the start of the trial and after 22 days had concluded. The weight gain (or loss) was then calculated being the difference between the 22 day weight and that measured at the trial start."}, "[2]": {"system": "sheep", "assay": "Sheep methane output trial, vitamin K3 in drinking water", "details": "approximately 2 g per 20 litres drinking water; 48 h to 148 h, FIG. 21", "procedure": "A trial was completed using Wiltshire hogget wether sheep.\nThe test sheep were able to drink further dosed water ad libitum while control sheep only had ad libitum access to tap water (un-dosed). Methane emitted by the test and control sheep was collected and emissions measured at intervals (48 h, 96 h, 120 h, 148 h)."}, "[3]": {"system": "sheep", "assay": "CO2 in exhalant of sheep dosed with vitamin K3 in drinking water", "details": "FIG. 24"}, "[4]": {"system": "sheep", "assay": "Metabolic chamber trial of sheep drenched with vitamin K3", "procedure": "Six one year old self shedding wether Wiltshire sheep were ranked by body weight and divided in to three strata or blocks. Block one contained the lightest sheep. Block 2 the mid-sized sheep, and Block 3 the heaviest sheep. Each of the sheep in each block was assigned at random to either be a control or experimental (dosed) individual.\nThe control group were not dosed at all.\nTesting was completed at dosing and after 24 hours of methane emissions using a metabolic chamber. • The metabolic chamber used was made of sealed panel. All joints were made gas tight by sealing compounds, and the doors and hatches were made gas tight by rubber seals. The gas-tight metabolic chamber had viewing windows on one side, the top, and the exit door. Sheep entered after being weighed through an entrance door at one end. All doors and hatches were sealed by pull-down latches. • Air was introduced into the chamber by a 25 mm pipe assembly with the intake located in a pure air space area outside the work and animal holding areas. The air was propelled into the chamber by an electric impeller. The flow rate was set at 5 m·s^−1. Air inside the chamber was mixed by carefully placed baffles and an electric impeller to ensure even composition even when the animal burped out methane periodically.\nWhen a sheep was introduced into the chamber it generally took between 2 and 3 minutes before the gas composition equilibrated and stayed constant. Readings were taken for few minutes once the gas levels had stabilised.\nThe dosing compound used as noted above, was human grade synthetic vitamin K3. This was dosed to the sheep as an aqueous oral fed drench.\nA longer trial to the above was then completed with the same sheep.\nMethane, carbon dioxide, volatile organic carbon (VOC) gas emissions and weight gain were measured at intervals during the trial time period of 241.2 hours.\nBetween being brought in for weighing and measuring, the sheep were allowed to graze normally on a grass field."}, "[5]": {"system": "sheep", "assay": "TVOC and HCHO in exhalant breath of sheep dosed with vitamin K3 (skatole proxy)", "procedure": "A trial was completed comparing the breath of test subject sheep dosed with vitamin K3 versus that of un-dosed sheep.\nTotal volatile organic compounds were measured in the exhalant breath of sheep. Two measurements were made being: • TVOC (Total Volatile Organic Compounds); and • HCHO (formaldehyde or equivalents)."}, "[6]": {"system": "sheep", "assay": "Metabolic chamber trial of sheep drenched with vitamin K3", "details": "Example 15 text; stated to be based on earlier experiments using the Douglas Bag technique"}, "[7]": {"details": "Controls group: un-dosed water in trial, but dosed with vitamin K3 around two months before"}, "[8]": {"details": "Dosed group: 1.87 g in 20 litres drinking water, access for 5 days"}},
  "data": [
    {"compound": "CC1=CC(=O)c2ccccc2C1=O", "note": "[vitamin K3]", "values": [
      {"measurement": "Daily weight gain", "setting": "[1]; [7]", "result": 0.064},
      {"measurement": "Wt. Gain (kg) after 22 days", "setting": "[1]; [7]", "result": 1.400, "unit": "kg"},
      {"measurement": "Daily weight gain", "setting": "[1]; [8]", "result": 0.238},
      {"measurement": "Wt. Gain (kg) after 22 days", "setting": "[1]; [8]", "result": 5.233, "unit": "kg"},
      {"measurement": "methane emissions levels lower than control sheep", "setting": "[2]", "result": "3-4 times"},
      {"measurement": "CO2 volume produced, less than control sheep", "setting": "[3]", "result": 3, "unit": "×"},
      {"measurement": "methane in one trial sheep", "setting": "[4]; Example 14, 24 hours post dosing", "result": "no detectable trace of methane"},
      {"measurement": "average reduction in methane emissions versus control sheep", "setting": "[4]; Example 14, single drench 75 mg (76 mg) in 15 ml water, dosing to 24 hours", "result": 96.4, "unit": "%"},
      {"measurement": "distress during the trial", "setting": "[4]; Example 15", "result": "showed no distress"},
      {"measurement": "greatest reduction of methane emissions in any sheep", "setting": "[4]; Example 15", "result": 100, "unit": "%"},
      {"measurement": "lowest value of the emission of methane from any sheep on any occasion", "setting": "[4]; Example 15", "result": "zero"},
      {"measurement": "CO2 concentration after dosing, before subtracting air baseline", "setting": "[4]; Example 15, FIG. 18, metabolic chamber, from 1271 ppm", "result": 610, "unit": "ppm"},
      {"measurement": "slope of best fit linear equation of mean body weight against HOURS", "setting": "[4]; Example 15, FIG. 19, R2=0.781", "result": "2.18E-01"},
      {"measurement": "total VOC in exhalant breath", "setting": "[4]; Example 15, FIG. 20", "result": "decreased over time"},
      {"measurement": "average reduction in methane emissions", "setting": "[4]; Example 15, single drench 75 mg in 15 ml water, 241.2 hours trial", "result": 80.5, "unit": "%"},
      {"measurement": "duration of the reduction in methane emissions after the single dose", "setting": "[4]; Example 15, whole trial duration, no extra dosing", "result": 241.2, "unit": "h"},
      {"measurement": "TVOC in breath, less than in un-dosed sheep", "setting": "[5]; FIG. 22", "result": "4-5 times"},
      {"measurement": "impact on favourable indole compounds", "setting": "[5]; inventor's observations, dosed sheep thrived", "result": "no negative impact"},
      {"measurement": "average reduction in carbon dioxide emissions", "setting": "[6]", "result": 92, "unit": "%"}
    ]},
    {"compound": "vitamin K", "values": [
      {"measurement": "weight gain of control group (dosed two months earlier) relative to naïve sheep", "setting": "[1]; 22 days", "result": "4-5 ×"},
      {"measurement": "animal growth rate", "setting": "[4]; Example 15", "result": "increase in animal growth rate"}
    ]}
  ]
}
